Earlier results, collected in patent publication US20170252312A1, “PREPARATIONS FOR TREATMENT AND PREVENTION OF ALCOHOL FLUSHING AND ALCOHOL-INDUCED HYPERSENSITIVITY REACTIONS” (BIOHIT OYJ, priority 2014, published 2017).

Experiments:
ADH enzyme = conditions: ALDH2-deficient individuals
[1] = test system: microbial acetaldehyde formation from ethanol

Cc1cn[nH]c1 [4-MP, 4-methylpyrazole]
alcohol-induced increase in salivary acetaldehyde levels (ADH enzyme): markedly decrease
flushing response to alcohol (ADH enzyme): suppressed also significantly
increase in heart rate and skin temperature and drop in diastolic blood pressure (ADH enzyme; 4-MP used before ethanol intake): disappeared

CC=O [Acetaldehyde]
histamine release (rat mast cells): enhance histamine release
histamine release (human mast cells): enhance histamine release

OC[C@@H](O)[C@H](O)[C@@H](O)CO [xylitol]
inhibition of microbial acetaldehyde formation from ethanol [1]: inhibit microbial acetaldehyde formation from ethanol
